Data: patent US9475328B2, “Developer for thermally responsive record materials” (Valspar Sourcing, Inc., priority 2012, dated 2016)

Key:
MCF-7, clone WS8 cells = assay: MCF-7 cell proliferation assay of estrogenic activity; assay type: cell-based, human; settings: logarithmic (base 10) Relative Proliferative Effect vs 17-beta estradiol; cell proliferation measured as total DNA; values 'expected or measured'
Source text: The MCF-7 assay is a useful test for assessing whether a polyhydric phenol compound is appreciably non-estrogenic. The MCF-7 assay uses MCF-7, clone WS8 cells to measure whether and to what extent a substance induces cell proliferation via estrogen receptor (ER)-mediated pathways. The method is described in “Test Method Nomination: MCF-7 Cell Proliferation Assay of Estrogenic Activity” submitted for validation by CertiChem, Inc. to the National Toxicology Program Interagency Center for the Evaluation of Alternative Toxicological Methods (NICEATM) on Jan. 19, 2006 (available online at http://iccvam.niehs.nih.gov/methods/endocrine/endodocs/SubmDoc.pdf).
A brief summary of the method of the aforementioned MCF-7 assay is provided below. MCF-7, clone WS8 cells are maintained at 37° C. in RMPI (Roswell Park Memorial Institute medium) containing Phenol Red (e.g., GIBCO Catalog Number 11875119) and supplemented with the indicated additives for routine culture. […] At the end of the 7 day exposure to the test chemical, the media is removed, the wells are washed once with 0.2 ml of HBSS (Hanks' Balanced Salt Solution), and then assayed to quantify amounts of DNA per well using a micro-plate modification of the Burton diphenylamine (DPA) assay, which is used to calculate the level of cell proliferation. […]

human estrogen receptor = molecular target: T1, human estrogen receptor (Homo sapiens, UniProt P03372); assay: suitable in vitro assay whose results correlate with the MCF-7 assay (estrogenic activity); assay type: cell-based; settings: in vitro assay correlated to MCF-7 assay through common reference compounds
T1 sequence (P03372 1-595): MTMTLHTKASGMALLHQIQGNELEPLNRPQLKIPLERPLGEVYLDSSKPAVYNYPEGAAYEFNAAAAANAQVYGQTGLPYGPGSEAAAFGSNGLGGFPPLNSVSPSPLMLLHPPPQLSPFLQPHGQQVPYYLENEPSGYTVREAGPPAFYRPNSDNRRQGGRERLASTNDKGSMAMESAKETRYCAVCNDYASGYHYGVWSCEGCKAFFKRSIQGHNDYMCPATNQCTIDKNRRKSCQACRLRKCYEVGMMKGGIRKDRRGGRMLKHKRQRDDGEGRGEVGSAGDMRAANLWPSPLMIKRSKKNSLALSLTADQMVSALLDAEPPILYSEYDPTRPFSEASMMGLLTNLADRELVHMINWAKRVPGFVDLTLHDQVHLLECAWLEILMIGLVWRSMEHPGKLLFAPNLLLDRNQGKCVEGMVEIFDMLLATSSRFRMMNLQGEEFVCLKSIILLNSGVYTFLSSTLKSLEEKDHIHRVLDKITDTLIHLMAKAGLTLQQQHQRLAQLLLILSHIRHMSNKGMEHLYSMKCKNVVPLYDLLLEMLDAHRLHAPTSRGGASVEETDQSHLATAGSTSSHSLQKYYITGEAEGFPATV

Row | Compound | Log RPE (MCF-7, clone WS8 cells) | estrogenic activity (human estrogen receptor)
1 | Oc1ccc(Cc2ccc(O)cc2)cc1 [Bisphenol F] | −2 | –
2 | CC(C)(C)c1cc(Cc2cc(C(C)(C)C)c(O)c(C(C)(C)C)c2)cc(C(C)(C)C)c1O [Structure 8, 4,4′-methylenebis(2,6-di-t-butylphenol)] | – | do not exhibit appreciable estrogenic activity
3 | Cc1cc(Cc2cc(C)cc(C(C)(C)C)c2O)c(O)c(C(C)(C)C)c1 [Structure 9] | – | do not exhibit appreciable estrogenic activity
4 | CCCC(c1cc(C(C)(C)C)c(O)cc1C)c1cc(C(C)(C)C)c(O)cc1C [Structure 7, 4,4′-butylidenebis(2-t-butyl-5-methylphenol)] | – | do not exhibit appreciable estrogenic activity
5 | Cc1cc(Cc2cc(C)c(O)c(C)c2)cc(C)c1O [Structure 6, 4,4′-methylenebis(2,6-dimethylphenol)] | – | do not exhibit appreciable estrogenic activity
6 | C[C@]12CC[C@@H]3c4ccc(O)cc4CC[C@H]3[C@@H]1CC[C@@H]2O [17β-estradiol] | 2.00 | –
7 | CC(C)(C)c1cc(O)c(C(C)(C)C)cc1O [Structure 12, 2,5-di-t-butylhydroquinone] | – | do not exhibit appreciable estrogenic activity
